Laboratory results published in the NIST ThermoML archive (doi:10.1021/je200964m).
Several values for one entry are separate records, joined by “and”; a condition that tells them apart may be missing. Equal entries are not always repeated.

Assays:
[1] = molar heat capacity at constant pressure; mn = molality of the nth substance listed, in mol/kg; settings: 298.15 K, 100 kPa, Liquid
[2] = mn = molality of the nth substance listed, in mol/kg; settings: 298.15 K, 100 kPa, Liquid, Vibrating tube method

CCC(=O)[O-].[Na+] [sodium propanoate] + O
[1], Flow calorimetry
Settings | molar heat capacity at constant pressure [J/K/mol]
m1 = 0.01002 | 75.35
m1 = 0.02029 | 75.37
m1 = 0.04064 | 75.41
m1 = 0.06027 | 75.44
m1 = 0.08026 | 75.47
m1 = 0.1002 | 75.51
m1 = 0.1998 | 75.69
m1 = 0.5005 | 76.31
m1 = 0.7511 | 76.87
m1 = 1 | 77.48
m1 = 1.982 | 80.19
m1 = 3.972 | 86.51
m1 = 5.982 | 92.7
m1 = 8.004 | 98.52

[2]
Settings | mass density [kg/m3]
m1 = 0.01002 | 997.478
m1 = 0.02029 | 997.9
m1 = 0.04064 | 998.74
m1 = 0.06027 | 999.536
m1 = 0.08026 | 1000.38
m1 = 0.1002 | 1001.21
m1 = 0.1998 | 1005.24
m1 = 0.5005 | 1016.94
m1 = 0.7511 | 1026.37
m1 = 1 | 1035.33
m1 = 1.982 | 1067.68
m1 = 3.972 | 1119.87
m1 = 5.982 | 1158.32
m1 = 8.004 | 1185.89

O=C[O-].[Na+] [sodium methanoate] + O
Settings | mass density, [2] [kg/m3] | molar heat capacity at constant pressure, [1] [J/K/mol]
m1 = 0.00974 | 997.482 | 74.69
m1 = 0.01004 | 997.512 | 74.71
m1 = 0.02003 | 997.907 | 74.79
m1 = 0.02065 | 997.932 | 74.7
m1 = 0.04058 | 998.75 | 74.71
m1 = 0.04064 | 998.753 | 74.79
m1 = 0.06027 | 999.589 | 74.76
m1 = 0.06153 | 999.685 | 74.66
m1 = 0.08026 | 1000.45 | 74.73
m1 = 0.08098 | 1000.47 | 74.63
m1 = 0.1002 | 1001.25 | 74.72
m1 = 0.1006 | 1001.27 | 74.62
m1 = 0.1998 | 1005.36 | 74.62
m1 = 0.25 | 1007.39 | 74.49
m1 = 0.5003 | 1017.41 | 74.3
m1 = 0.5005 | 1017.34 | 74.41
m1 = 0.75 | 1027.24 | 74.33
m1 = 0.7507 | 1027.17 | 74.18
m1 = 1 | 1036.61 | 73.86
m1 = 1.008 | 1037.01 | 74.26
m1 = 2 | 1072.42 | 74.32
m1 = 2.576 | 1092.07 | 75.46
m1 = 3.968 | 1134.81 | 75.93
m1 = 4 | 1135.38 | 75.98
m1 = 5.998 | 1188.91 | 78.43
m1 = 6.036 | 1190.2 | 77.81
m1 = 8.011 | 1235.13 | 81.13
m1 = 10.01 | 1275.62 | 84.02

CC(=O)[O-].[Na+] [sodium ethanoate] + O
[1], Flow calorimetry
Settings | molar heat capacity at constant pressure [J/K/mol]
m1 = 0.01999 | 75.34
m1 = 0.02177 | 75.33
m1 = 0.03988 | 75.34
m1 = 0.04259 | 75.33
m1 = 0.06003 | 75.33
m1 = 0.06004 | 75.33
m1 = 0.08011 | 75.34
m1 = 0.08018 | 75.34
m1 = 0.1002 | 75.34
m1 = 0.25 | 75.37
m1 = 0.4956 | 75.48
m1 = 0.4998 | 75.48
m1 = 0.9999 | 75.86
m1 = 1.997 | 77.13
m1 = 2.003 | 77.13
m1 = 4.532 | 81.99

[2]
Settings | mass density
m1 = 0.01999 | 997.898 kg/m3
m1 = 0.02177 | 997.982 kg/m3
m1 = 0.03988 | 998.731 kg/m3
m1 = 0.04259 | 998.856 kg/m3
m1 = 0.06003 | 999.574 kg/m3
m1 = 0.06004 | 999.577 kg/m3
m1 = 0.08011 | 1000.41 kg/m3
m1 = 0.08018 | 1000.42 kg/m3
m1 = 0.1002 | 1001.25 kg/m3 and 1001.25 kg/m3
m1 = 0.25 | 1007.38 kg/m3
m1 = 0.4956 | 1017.13 kg/m3
m1 = 0.4998 | 1017.29 kg/m3
m1 = 0.9999 | 1036.14 kg/m3
m1 = 1.997 | 1070.48 kg/m3
m1 = 2.003 | 1070.59 kg/m3
m1 = 4.532 | 1141.59 kg/m3

CCCC(=O)[O-].[Na+] [sodium butyrate] + O
[1], Flow calorimetry
Settings | molar heat capacity at constant pressure [J/K/mol]
m1 = 0.01976 | 75.41
m1 = 0.04005 | 75.47
m1 = 0.06005 | 75.54
m1 = 0.08053 | 75.61
m1 = 0.102 | 75.68
m1 = 0.2495 | 76.19
m1 = 0.4997 | 77.12
m1 = 0.7508 | 78.09
m1 = 1 | 79.11
m1 = 1.993 | 83.42
m1 = 4 | 91.23
m1 = 5.997 | 97.99

[2]
Settings | mass density [kg/m3]
m1 = 0.01976 | 997.868
m1 = 0.04005 | 998.697
m1 = 0.06005 | 999.507
m1 = 0.08053 | 1000.32
m1 = 0.102 | 1001.17
m1 = 0.2495 | 1006.98
m1 = 0.4997 | 1016.49
m1 = 0.7508 | 1025.47
m1 = 1 | 1034.04
m1 = 1.993 | 1064.55
m1 = 4 | 1109.06
m1 = 5.997 | 1136.24
